Source: patent publication US20240058450A1, “BCL-XL Inhibitory Compounds Having Low Cell Permeability and Antibody Drug Conjugates Including the Same” (AbbVie Inc., priority 2014, published 2024)
Read-outs that look alike come from different tables or passages of the source.

Legend:
[1] = test system: Molt-4 human acute lymphoblastic leukemia cells; test: Molt-4 cell viability assay (CellTiter-Glo, 48 hours, 10% HS); type: cell-based; conditions: Homo sapiens, MOLT-4, 48 h, non-permeabilized cells
How it was run: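 Cells were seeded at 12,500 per well in medium with 10% human serum and exposed to a 3-fold compound dilution series from 10 μM to 0.0005 μM. After 48 h, viable cells were quantified by CellTiter-Glo luminescence. Each concentration was run in duplicate on at least 3 occasions.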

Bcl-xL = Bcl-xL (Homo sapiens, UniProt Q07817); test: Time Resolved-Fluorescence Resonance Energy Transfer (TR-FRET) binding assay, competition with probe F-Bak
Chain of Bcl-xL (Q07817 whole entry): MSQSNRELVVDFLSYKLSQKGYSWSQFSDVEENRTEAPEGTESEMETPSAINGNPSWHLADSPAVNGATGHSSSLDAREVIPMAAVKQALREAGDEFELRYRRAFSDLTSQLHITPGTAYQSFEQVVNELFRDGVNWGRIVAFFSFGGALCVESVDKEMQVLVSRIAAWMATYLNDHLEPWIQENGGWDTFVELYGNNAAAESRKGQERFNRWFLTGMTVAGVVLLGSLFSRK
How it was run: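 Compounds compete with F-Bak probe for GST-Bcl-xL detected by Tb-anti-GST antibody. Serial dilutions from 50 μM (2× stock) incubated 2 h at room temperature, then read at 340 nm excitation, 520 and 495 nm emission. Ki by Wang's equation, tested without and with 1% human serum.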

[2] = in the presence of 1% HS, read-out: Bcl-xL Binding Ki (nM, 1% HS)
[3] = without HS, read-out: Bcl-xL Binding Ki

Row | Structure (SMILES) | EC50 [1] [nM] | Ki (Bcl-xL; [2]) [nM] | Ki (Bcl-xL; [3]) [nM]
1 | Cc1c(-c2ccc(N3CCc4cccc(C(=O)Nc5nc6ccccc6s5)c4C3)nc2C(=O)O)cnn1CC12CC3(C)CC(C)(C1)CC(OCCNCCC(=O)NC(CO)(CO)CO)(C3)C2 [Example 1.84, 6-[8-(1,3-benzothiazol-2-ylcarbamoyl)-3,4-dihydroisoquinolin-2 (1H)-yl]-3-{1-[(3-{2-[(3-{[1,3-dihydroxy-2-(hydroxymethyl)propan-2-yl]amino}-3-oxopropyl)amino]ethoxy}-5,7-dimethyltricyclo[3.3.1.1^3,7]dec-1-yl)methyl]-5-methyl-1H-pyrazol-4-yl}pyridine-2-carboxylic acid] | 259 | 1.2 | 0.069
2 | Cc1c(-c2ccc(N3CCc4cccc(C(=O)Nc5nc6ccccc6s5)c4C3)nc2C(=O)O)cnn1CC12CC3(C)CC(C)(C1)CC(OCCN(CCNCCS(=O)(=O)O)CCS(=O)(=O)O)(C3)C2 [Example 1.48, 6-[8-(1,3-benzothiazol-2-ylcarbamoyl)-3,4-dihydroisoquinolin-2 (1H)-yl]-3-{1-[(3,5-dimethyl-7-{2-[(2-sulfoethyl){2-[(2-sulfoethyl)amino]ethyl}amino]ethoxy}tricyclo[3.3.1.1^3,7]dec-1-yl)methyl]-5-methyl-1H-pyrazol-4-yl}pyridine-2-carboxylic acid] | 692 | 0.497 | < 0.001
3 | Cc1c(-c2ccc(N3CCc4cccc(C(=O)Nc5nc6ccccc6s5)c4C3)nc2C(=O)O)cnn1CC12CC3(C)CC(C)(C1)CC(OCCN(CCS(=O)(=O)O)C(=O)[C@@H](N)CS(=O)(=O)O)(C3)C2 [Example 1.37, 6-[8-(1,3-benzothiazol-2-ylcarbamoyl)-3,4-dihydroisoquinolin-2 (1H)-yl]-3-{1-[(3,5-dimethyl-7-{2-[(3-sulfo-L-alanyl)(2-sulfoethyl)amino]ethoxy}tricyclo[3.3.1.1^3,7]dec-1-yl)methyl]-5-methyl-1H-pyrazol-4-yl}pyridine-2-carboxylic acid] | 805 | 0.294 | < 0.001
4 | Cc1c(-c2ccc(-c3ccc4cccc(C(=O)Nc5nc6ncccc6s5)c4c3)nc2C(=O)O)cnn1CC12CC3(C)CC(C)(C1)CC(OCCNCCS(=O)(=O)O)(C3)C2 [Example 1.54, 3-{1-[(3,5-dimethyl-7-[2-[(2-sulfoethyl)amino]ethoxy}tricyclo[3.3.1.1^3,7]dec-1-yl)methyl]-5-methyl-1H-pyrazol-4-yl}-6-[8-([1,3]thiazolo[4,5-b]pyridin-2-ylcarbamoyl)naphthalen-2-yl]pyridine-2-carboxylic acid] | > 10000 | 0.11 | < 0.001
5 | Cc1c(-c2ccc(N3CCc4cccc(C(=O)Nc5nc6ccccc6s5)c4C3)nc2C(=O)O)cnn1CC12CC3(C)CC(C)(C1)CC(OCCN(C)C(=O)[C@@H](N)CC(=O)O)(C3)C2 [Example 1.17, 3-{1-[(3-{2-[L-alpha-aspartyl(methyl)amino]ethoxy}-5,7-dimethyltricyclo[3.3.1.1^3,7]dec-1-yl)methyl]-5-methyl-1H-pyrazol-4-yl}-6-[8-(1,3-benzothiazol-2-ylcarbamoyl)-3,4-dihydroisoquinolin-2 (1H)-yl]pyridine-2-carboxylic acid] | 576 | 0.3 | 0.022
6 | Cc1c(-c2ccc(-c3ccc4c(c3)N(C(=O)Nc3nc5ccccc5s3)CCC4)nc2C(=O)O)cnn1CC12CC3(C)CC(C)(C1)CC(OCCN(C)C(=O)[C@@H](N)CS(=O)(=O)O)(C3)C2 [Example 1.21, 6-[1-(1,3-benzothiazol-2-ylcarbamoyl)-1,2,3,4-tetrahydroquinolin-7-yl]-3-(1-[(3,5-dimethyl-7-(2-[methyl(3-sulfo-L-alanyl)amino]ethoxy}tricyclo[3.3.1.1^3,7]dec-1-yl)methyl]-5-methyl-1H-pyrazol-4-yl)pyridine-2-carboxylic acid] | 420 | 0.22 | 0.004
7 | Cc1c(-c2ccc(N3CCc4cccc(C(=O)Nc5nc6ccccc6s5)c4C3)nc2C(=O)O)cnn1CC12CC3(C)CC(C)(C1)CC(OCCN(CCC(=O)O)C1CCNCC1)(C3)C2 [Example 1.36, 6-[8-(1,3-benzothiazol-2-ylcarbamoyl)-3,4-dihydroisoquinolin-2 (1H)-yl]-3-{1-[(3-{2-[(2-carboxyethyl)(piperidin-4-yl)amino]ethoxy}-5,7-dimethyltricyclo[3.3.1.1^3,7]dec-1-yl)methyl]-5-methyl-1H-pyrazol-4-yl}pyridine-2-carboxylic acid] | 405 | 0.0635 | < 0.001
8 | CNCCCc1cc2c(c(C(=O)Nc3nc4ccccc4s3)c1)CN(c1ccc(-c3cnn(CC45CC6(C)CC(C)(C4)CC(OCCNCCS(=O)(=O)O)(C6)C5)c3C)c(C(=O)O)n1)CC2 [Example 1.75, 6-[8-(1,3-benzothiazol-2-ylcarbamoyl)-6-[3-(methylamino)propyl]-3,4-dihydroisoquinolin-2 (1H)-yl]-3-{1-[(3,5-dimethyl-7-{2-[(2-sulfoethyl)amino]ethoxy}tricyclo[3.3.1.1^3,7]dec-1-yl)methyl]-5-methyl-1H-pyrazol-4-yl}pyridine-2-carboxylic acid] | 409 | 0.85 | 0.016
9 | Cc1c(-c2ccc(N3CCc4cccc(C(=O)Nc5nc6ccccc6s5)c4C3)nc2C(=O)O)cnn1CC12CC3(C)CC(C)(C1)CC(OCCNCc1ccc(S(=O)(=O)N[C@@H]4[C@@H](O)[C@H](O)[C@@H](CO)O[C@H]4O)cc1)(C3)C2 [Example 1.8, 2-({[4-({[2-({3-[(4-{6-[8-(1,3-benzothiazol-2-ylcarbamoyl)-3,4-dihydroisoquinolin-2 (1H)-yl]-2-carboxypyridin-3-yl}-5-methyl-1H-pyrazol-1-yl)methyl]-5,7-dimethyltricyclo[3.3.1.1^3,7]dec-1-yl}oxy)ethyl]amino}methyl)phenyl]sulfonyl}amino)-2-deoxy-beta-D-glucopyranose] | 108 | 0.19 | 0.0019
10 | Cc1c(-c2ccc(-c3ccc4cncc(C(=O)Nc5nc6ccccc6s5)c4c3)nc2C(=O)O)cnn1CC12CC3(C)CC(C)(C1)CC(OCCNCCS(=O)(=O)O)(C3)C2 [Example 1.78, 6-[4-(1,3-benzothiazol-2-ylcarbamoyl)isoquinolin-6-yl]-3-{1-[(3,5-dimethyl-7-(2-[(2-sulfoethyl)amino]ethoxy}tricyclo[3.3.1.1^3,7]dec-1-yl)methyl]-5-methyl-1H-pyrazol-4-yl}pyridine-2-carboxylic acid] | 2.22 | < 0.01 | < 0.01
11 | Cc1c(-c2ccc(N3CCc4cccc(C(=O)Nc5nc6ccccc6s5)c4C3)nc2C(=O)O)cnn1CC12CC3(C)CC(C)(C1)CC(OCCNCCS(=O)(=O)N[C@H]1C(O)O[C@H](CO)[C@@H](O)[C@@H]1O)(C3)C2 (stereo partly drawn) [Example 1.3, 2-{[(2-{[2-({3-[(4-{6-[8-(1,3-benzothiazol-2-ylcarbamoyl)-3,4-dihydroisoquinolin-2 (1H)-yl]-2-carboxypyridin-3-yl}-5-methyl-1H-pyrazol-1-yl)methyl]-5,7-dimethyltricyclo[3.3.1.1^3,7]dec-1-yl)oxy)ethyl]amino)ethyl)sulfonyl]amino}-2-deoxy-D-glucopyranose] | 23 | 0.18 | 0.0011
12 | Cc1c(-c2ccc(N3CCc4cccc(C(=O)Nc5nc6ccccc6s5)c4C3)nc2C(=O)O)cnn1CC12CC3(C)CC(C)(C1)CC(OCCN(CCN)CCS(=O)(=O)O)(C3)C2 [Example 1.33, 3-{1-[(3-{2-[(2-aminoethyl)(2-sulfoethyl)amino]ethoxy}-5,7-dimethyltricyclo[3.3.1.1^3,7]dec-1-yl)methyl]-5-methyl-1H-pyrazol-4-yl}-6-[8-(1,3-benzothiazol-2-ylcarbamoyl)-3,4-dihydroisoquinolin-2 (1H)-yl]pyridine-2-carboxylic acid] | 319 | 0.12 | < 0.001
13 | Cc1c(-c2ccc(N3CCc4cccc(C(=O)Nc5nc6ncccc6s5)c4C3)nc2C(=O)O)cnn1CC12CC3(C)CC(C)(C1)CC(OCCN(CCCP(=O)(O)O)C1CCNCC1)(C3)C2 [Example 1.50, 3-{1-[(3,5-dimethyl-7-{2-[(3-phosphonopropyl)(piperidin-4-yl)amino]ethoxy)tricyclo[3.3.1.1^3,7]dec-1-yl)methyl]-5-methyl-1H-pyrazol-4-yl}-6-[8-([1,3]thiazolo[4,5-b]pyridin-2-ylcarbamoyl)-3,4-dihydroisoquinolin-2 (1H)-yl]pyridine-2-carboxylic acid] | 2770 | 0.051 | 0.0073
14 | Cc1c(-c2ccc(-c3ccc4cccc(C(=O)Nc5nc6ccccc6s5)c4c3)nc2C(=O)O)cnn1CC12CC3(C)CC(C)(C1)CC(OCCNCCC(=O)O)(C3)C2 [Example 1.68, 6-[8-(1,3-benzothiazol-2-ylcarbamoyl)naphthalen-2-yl]-3-(1-[(3-{2-[(2-carboxyethyl)amino]ethoxy}-5,7-dimethyltricyclo[3.3.1.1^3,7]dec-1-yl)methyl]-5-methyl-1H-pyrazol-4-yl}pyridine-2-carboxylic acid] | 346 | 0.32 | < 0.01
15 | Cc1c(-c2ccc(N3CCc4cccc(C(=O)Nc5nc6ccccc6s5)c4C3)nc2C(=O)O)cnn1CC12CC3(C)CC(C)(C1)CC(OCCNCCOCCOCC(=O)O)(C3)C2 [Example 1.1, 6-[8-(1,3-benzothiazol-2-ylcarbamoyl)-3,4-dihydroisoquinolin-2 (1H)-yl]-3-[1-({3-[2-({2-[2-(carboxymethoxy)ethoxy]ethyl}amino)ethoxy]-5,7-dimethyltricyclo[3.3.1.1^3,7]dec-1-yl]methyl)-5-methyl-1H-pyrazol-4-yl]pyridine-2-carboxylic acid] | 26 | 0.09 | < 0.001
